{
  "source": "ChEMBL document CHEMBL6078666",
  "about": "“Discovery of Novel Coumarin Pleuromutilin Derivatives as Potent Anti-MRSA Agents” (J Med Chem, 2024)",
  "key": {"[1]": {"test_system": "Staphylococcus epidermidis", "assay": "Antibacterial activity against methicillin-resistant Staphylococcus epidermidis clinical isolate 202409454 assessed as bacterial growth inhibition measured after 20 hrs by broth dilution method", "type": "functional"}, "[2]": {"test_system": "Enterococcus faecium", "assay": "Antibacterial activity against vancomycin-resistant Enterococcus faecium ATCC 700221 assessed as bacterial growth inhibition measured after 20 hrs by broth dilution method", "type": "functional"}, "[3]": {"test_system": "Staphylococcus aureus", "assay": "Antibacterial activity against methicillin-resistant Staphylococcus aureus ATCC 33591 infected in female C57 mouse systemic infection model assessed as reduction in number of inflammatory cells in heart at 40 mg/kg, iv administered twice daily and measured after 7 days by H and E staining based analysis", "type": "functional, organism-based", "details": "time 7.0 day"}, "[4]": {"test_system": "Staphylococcus aureus", "assay": "Antibacterial activity against methicillin-resistant Staphylococcus aureus ATCC 43300 assessed as bacterial growth inhibition measured after 20 hrs by broth dilution method", "type": "functional"}, "[5]": {"test_system": "Enterococcus faecium", "assay": "Ratio of MBC to MIC against vancomycin-resistant Enterococcus faecium ATCC 51559", "type": "functional"}, "[6]": {"test_system": "Staphylococcus aureus", "assay": "Bactericidal activity against methicillin-resistant Staphylococcus aureus ATCC 33591 measured upto 24 hrs by time kill assay", "type": "functional, organism-based"}, "[7]": {"test_system": "Staphylococcus aureus", "assay": "Antibacterial activity against methicillin-resistant Staphylococcus aureus ATCC 33591 infected in female C57 mouse systemic infection model assessed as reduction in distorted myocardial fibers in heart at 40 mg/kg, iv administered twice daily and measured after 7 days by H and E staining based analysis", "type": "functional, organism-based", "details": "time 7.0 day"}, "[8]": {"test_system": "Staphylococcus aureus", "assay": "Antibacterial activity against Staphylococcus aureus ATCC 33591 measured after 9 days", "type": "functional, organism-based", "details": "time 9.0 day"}, "[9]": {"test_system": "Staphylococcus aureus", "assay": "Antibacterial activity against methicillin-resistant Staphylococcus aureus ATCC 33591 infected in female C57 mouse systemic infection model assessed as survival rate at 40 mg/kg, po measured upto 7 days relative to control", "type": "functional", "details": "ATCC 33591, 168 h, time <= 7 day"}, "[10]": {"test_system": "Staphylococcus aureus", "assay": "Drug resistance, ratio of MIC for Staphylococcus aureus ATCC 33591 after 8 days to MIC for methicillin-resistant Staphylococcus aureus ATCC 33591 after initial exposure", "type": "functional", "details": "time 8 day"}, "[11]": {"test_system": "Staphylococcus epidermidis", "assay": "Antibacterial activity against methicillin-resistant Staphylococcus epidermidis clinical isolate 202409139 assessed as bacterial growth inhibition measured after 20 hrs by broth dilution method", "type": "functional"}, "[12]": {"test_system": "Staphylococcus aureus", "assay": "Antibiofilm activity in methicillin-resistant Staphylococcus aureus ATCC 33591 assessed as inhibition of biofilm formation measured after 48 hrs by crystal violet staining based analysis relative to control", "type": "functional, organism-based"}, "[13]": {"test_system": "Staphylococcus aureus", "assay": "Antibacterial activity against methicillin-resistant Staphylococcus aureus clinical isolate 202311772 assessed as bacterial growth inhibition measured after 20 hrs by broth dilution method", "type": "functional"}, "[14]": {"test_system": "Staphylococcus aureus", "assay": "Antibiofilm activity in methicillin-resistant Staphylococcus aureus ATCC 33591 assessed as inhibition of biofilm formation at 1/16 time MIC measured after 48 hrs by crystal violet staining based analysis relative to control", "type": "functional", "parameters": "scale not given: the % may be the effect or the level left"}, "[15]": {"test_system": "Staphylococcus aureus", "assay": "Bactericidal activity against methicillin-resistant Staphylococcus aureus ATCC 33591 at 4 to 8 times MIC measured after 6 to 8 hrs by time kill assay", "type": "functional, organism-based", "details": "time 6-8 hrs"}, "[16]": {"test_system": "Staphylococcus aureus", "assay": "Antibacterial activity against methicillin-resistant Staphylococcus aureus clinical isolate 202405157 assessed as bacterial growth inhibition measured after 20 hrs by broth dilution method", "type": "functional"}, "[17]": {"test_system": "Staphylococcus aureus", "assay": "Antibacterial activity against methicillin resistant Staphylococcus aureus ATCC 33591 assessed as post antibiotic effect at 2 times MIC by time kill assay", "type": "functional"}, "[18]": {"test_system": "Streptococcus pneumoniae", "assay": "Ratio of MBC to MIC against penicillin-resistant Streptococcus pneumoniae ATCC 51916", "type": "functional"}, "[19]": {"test_system": "Staphylococcus aureus", "assay": "Antibiofilm activity in methicillin-resistant Staphylococcus aureus ATCC 33591 measured after 24 hrs by MTT assay", "type": "functional"}, "[20]": {"test_system": "Staphylococcus aureus", "assay": "Bactericidal activity against methicillin-resistant Staphylococcus aureus ATCC 33591 at 2 times MIC measured after 8 to 12 hrs by time kill assay", "type": "functional, organism-based", "details": "time 8-12 hrs"}, "[21]": {"test_system": "HepG2", "assay": "Cytotoxicity against human HepG2 cells at 0 to 40 ug/ml measured after 24 hrs by MTT assay relative to control", "type": "functional", "details": "dose 0-40 µg/ml"}, "[22]": {"assay": "Volume of distribution at steady state in mouse at 5 mg/kg, iv measured after 8 hrs", "type": "ADME, organism-based", "details": "in vivo, read-out: Vdss"}, "[23]": {"test_system": "Staphylococcus aureus", "assay": "Antibacterial activity against methicillin-resistant Staphylococcus aureus ATCC 33591 infected in female C57 mouse systemic infection model assessed as reduction in bacterial load in liver at 40 mg/kg, iv administered twice daily and measured after 7 days", "type": "functional", "details": "time 7 day"}, "[24]": {"test_system": "Staphylococcus aureus", "assay": "Ratio of MBC to MIC against methicillin-resistant Staphylococcus aureus clinical isolate 202405157", "type": "functional"}, "[25]": {"test_system": "Staphylococcus aureus", "assay": "Antibacterial activity against methicillin-resistant Staphylococcus aureus ATCC 33591 infected in female C57 mouse systemic infection model assessed as reduction in appearance of loosely arranged cells in spleen at 40 mg/kg, iv administered twice daily and measured after 7 days by H and E staining based analysis", "type": "functional, organism-based", "details": "time 7.0 day"}, "[26]": {"test_system": "Staphylococcus aureus", "assay": "Antibacterial activity against methicillin-resistant Staphylococcus aureus ATCC 33591 infected in female C57 mouse systemic infection model assessed as reduction in inflammatory infiltration in kidney at 40 mg/kg, iv administered twice daily and measured after 7 days by H and E staining based analysis", "type": "functional, organism-based", "details": "time 7.0 day"}, "[27]": {"assay": "Acute toxicity in po dosed female C57 mouse assessed as lethal dose measured after 48 hrs", "type": "organism-based", "details": "in vivo"}, "[28]": {"test_system": "Streptococcus pneumoniae", "assay": "Antibacterial activity against penicillin-intermediate Streptococcus pneumoniae ATCC 49619 assessed as bacterial growth inhibition measured after 20 hrs by broth dilution method", "type": "functional"}, "[29]": {"test_system": "Enterococcus faecium", "assay": "Ratio of MBC to MIC against vancomycin-resistant Enterococcus faecium ATCC 700221", "type": "functional"}, "[30]": {"test_system": "Staphylococcus aureus", "assay": "Antibiofilm activity in methicillin-resistant Staphylococcus aureus ATCC 33591 assessed as inhibition of biofilm formation at 1/16 times MIC measured after 48 hrs by crystal violet staining based analysis relative to control", "type": "functional", "parameters": "scale not given: the % may be the effect or the level left"}, "[31]": {"test_system": "Staphylococcus aureus", "assay": "Antibacterial activity against methicillin-resistant Staphylococcus aureus ATCC 33591 infected in female C57 mouse systemic infection model assessed as reduction in vacuolation in heart at 40 mg/kg, iv administered twice daily and measured after 7 days by H and E staining based analysis", "type": "functional, organism-based", "details": "time 7.0 day"}, "[32]": {"test_system": "Streptococcus pneumoniae", "assay": "Antibacterial activity against penicillin-resistant Streptococcus pneumoniae ATCC 51916 assessed as bacterial growth inhibition measured after 20 hrs by broth dilution method", "type": "functional"}, "[33]": {"test_system": "Staphylococcus aureus", "assay": "Antibacterial activity against methicillin-resistant Staphylococcus aureus ATCC 33591 infected in female C57 mouse systemic infection model assessed as reduction in disordered myocardial fibers in heart at 40 mg/kg, iv administered twice daily and measured after 7 days by H and E staining based analysis", "type": "functional, organism-based", "details": "time 7.0 day"}, "[34]": {"test_system": "Enterococcus faecium", "assay": "Ratio of MBC to MIC against vancomycin-resistant Enterococcus faecium clinical isolate 202308456", "type": "functional"}, "[35]": {"test_system": "L02", "assay": "Cytotoxicity against human HL7702 cells at 0 to 40 ug/ml measured after 24 hrs by MTT assay relative to control", "type": "toxicity, cell-based", "details": "l02, 24 h, dose 0-40 µg/ml"}, "[36]": {"test_system": "Staphylococcus aureus", "assay": "Antibacterial activity against methicillin resistant Staphylococcus aureus ATCC 33591 assessed as post antibiotic effect at 4 times MIC by time kill assay", "type": "functional"}, "[37]": {"assay": "Half life in mouse at 5 mg/kg, iv measured after 8 hrs", "type": "ADME, organism-based", "details": "in vivo"}, "[38]": {"test_system": "Staphylococcus aureus", "assay": "Ratio of MBC to MIC against methicillin-resistant Staphylococcus aureus clinical isolate 202311772", "type": "functional"}},
  "note": "Activity calls are given as the source filed them. No cut-off for these calls is given here.",
  "data": [
    {"smiles": "C=C[C@]1(C)C[C@@H](OC(=O)CSc2cc(=O)oc3cc(OC)ccc23)[C@]2(C)[C@H](C)CC[C@]3(CCC(=O)[C@H]32)[C@@H](C)[C@@H]1O", "values": [
      {"measurement": "MIC", "setting": "[1]", "value": 0.063, "unit": "µg/mL"},
      {"measurement": "MIC", "setting": "[2]", "value": 0.031, "unit": "µg/mL"},
      {"measurement": "Activity", "setting": "[3]", "value": "Active"},
      {"measurement": "MIC", "setting": "[4]", "value": 0.031, "unit": "µg/mL"},
      {"measurement": "Ratio", "setting": "[5]", "value": 1},
      {"measurement": "Activity", "setting": "[6]", "value": "Dose-dependent-effect"},
      {"measurement": "Activity", "setting": "[7]", "value": "Active"},
      {"measurement": "Activity", "setting": "[8]", "value": "inactive"},
      {"measurement": "survival at 40 mg/kg", "setting": "[9]", "value": 80, "unit": "%"},
      {"measurement": "fold change (FC)", "setting": "[10]", "value": 4},
      {"measurement": "MIC", "setting": "[11]", "value": 0.031, "unit": "µg/mL"},
      {"measurement": "Activity", "setting": "[12]", "value": "Dose-dependent-effect"},
      {"measurement": "MIC", "setting": "[13]", "value": 0.031, "unit": "µg/mL"},
      {"measurement": "Activity", "setting": "[14]", "value": 50.42, "unit": "%"},
      {"measurement": "Activity", "setting": "[15]", "value": "Active"},
      {"measurement": "MIC", "setting": "[16]", "value": 0.063, "unit": "µg/mL"},
      {"measurement": "PAE", "setting": "[17]", "value": 1.51, "unit": "h"},
      {"measurement": "Ratio", "setting": "[18]", "value": 2},
      {"measurement": "MBEC", "setting": "[19]", "value": 8, "unit": "µg/mL"},
      {"measurement": "Activity", "setting": "[20]", "value": "Active"},
      {"measurement": "Activity", "setting": "[21]", "value": ">85", "unit": "%"},
      {"measurement": "Vd", "setting": "[22]", "value": 1.76, "unit": "L/kg"},
      {"measurement": "Activity", "setting": "[23]", "value": 2.05, "unit": "log10CFU/g"},
      {"measurement": "Ratio", "setting": "[24]", "value": 2},
      {"measurement": "Activity", "setting": "[25]", "value": "Active"},
      {"measurement": "Activity", "setting": "[26]", "value": "Active"},
      {"measurement": "LD50 at 48 h", "setting": "[27]", "value": 2000, "unit": "mg/kg"},
      {"measurement": "MIC", "setting": "[28]", "value": 0.031, "unit": "µg/mL"},
      {"measurement": "Ratio", "setting": "[29]", "value": 1},
      {"measurement": "Activity", "setting": "[30]", "value": 80.67, "unit": "%"},
      {"measurement": "Activity", "setting": "[31]", "value": "Active"},
      {"measurement": "MIC", "setting": "[32]", "value": 0.063, "unit": "µg/mL"},
      {"measurement": "Activity", "setting": "[33]", "value": "Active"},
      {"measurement": "Ratio", "setting": "[34]", "value": 2},
      {"measurement": "Activity", "setting": "[35]", "value": "> 85", "unit": "%"},
      {"measurement": "PAE", "setting": "[36]", "value": 1.9, "unit": "h"},
      {"measurement": "half-life", "setting": "[37]", "value": 1.52, "unit": "h"},
      {"measurement": "Ratio", "setting": "[38]", "value": 1}
    ]}
  ]
}
